# Results: patent US20100041089A1, “IMPROVED METHOD FOR DETECTING CHEMICAL […]” (priority 2006, published 2010)
# Tested on: yeast genes (expressed mRNA)
# Assay: DNA chip measurement of expressed mRNA of yeast genes after culture with a toxic chemical substance
# Type: cell-based, Saccharomyces cerevisiae S288C
# How it was run: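 Expression is given as treated/untreated fluorescence ratio on a whole-genome yeast DNA chip, a ratio of two or more being significant. Log-phase S288C cultures in YPD at 25 °C received the chemical for 2 h at a dose that slows growth without killing. mRNA was reverse-transcribed with Cy3- or Cy5-dUTP.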
structure (smiles),measurement,setting,value
"C=CC=O [(14), Acrolein]",The level of expressed mRNA in the presence of chemical substance/The level of expressed mRNA in the absence of chemical substance,"yeast gene YKL071W, cultured two hours with substance",21.9
same,The level of expressed mRNA in the presence of chemical substance/The level of expressed mRNA in the absence of chemical substance,"yeast gene YKL086W, cultured two hours with substance",2.9
same,The level of expressed mRNA in the presence of chemical substance/The level of expressed mRNA in the absence of chemical substance,"yeast gene YKL151C, cultured two hours with substance",1.3
same,The level of expressed mRNA in the presence of chemical substance/The level of expressed mRNA in the absence of chemical substance,"yeast gene YKL153W, cultured two hours with substance",1.1
same,The level of expressed mRNA in the presence of chemical substance/The level of expressed mRNA in the absence of chemical substance,"yeast gene YKL195W, cultured two hours with substance",1.6
same,The level of expressed mRNA in the presence of chemical substance/The level of expressed mRNA in the absence of chemical substance,yeast gene YKL198C,6.6
same,The level of expressed mRNA in the presence of chemical substance/The level of expressed mRNA in the absence of chemical substance,"yeast gene YKR049C, cultured two hours with substance",2.1
same,The level of expressed mRNA in the presence of chemical substance/The level of expressed mRNA in the absence of chemical substance,yeast gene YKR076W,14.7
same,The level of expressed mRNA in the presence of chemical substance/The level of expressed mRNA in the absence of chemical substance,"yeast gene YKR091W, cultured two hours with substance",1.9
same,The level of expressed mRNA in the presence of chemical substance/The level of expressed mRNA in the absence of chemical substance,"yeast gene YKR097W, cultured for two hours with substance",2.1
same,The level of expressed mRNA in the presence of chemical substance/The level of expressed mRNA in the absence of chemical substance,"yeast gene YLL056C, cultured two hours with substance",11.0
same,The level of expressed mRNA in the presence of chemical substance/The level of expressed mRNA in the absence of chemical substance,yeast gene YLL060C (detoxification protein gene),10.6
same,The level of expressed mRNA in the presence of chemical substance/The level of expressed mRNA in the absence of chemical substance,yeast gene YLL060C (stress protein genes),10.6
same,The level of expressed mRNA in the presence of chemical substance/The level of expressed mRNA in the absence of chemical substance,"yeast gene YLR031W, cultured two hours with substance",1.5
same,The level of expressed mRNA in the presence of chemical substance/The level of expressed mRNA in the absence of chemical substance,"yeast gene YLR054C, cultured two hours with substance",1.1
same,The level of expressed mRNA in the presence of chemical substance/The level of expressed mRNA in the absence of chemical substance,"yeast gene YLR149C, cultured two hours with substance",1.2
same,The level of expressed mRNA in the presence of chemical substance/The level of expressed mRNA in the absence of chemical substance,"yeast gene YLR152C, cultured two hours with substance",1.2
same,The level of expressed mRNA in the presence of chemical substance/The level of expressed mRNA in the absence of chemical substance,"yeast gene YLR194C, cultured two hours with substance",1.2
same,The level of expressed mRNA in the presence of chemical substance/The level of expressed mRNA in the absence of chemical substance,"yeast gene YLR205C, cultured two hours with substance",2.4
same,The level of expressed mRNA in the presence of chemical substance/The level of expressed mRNA in the absence of chemical substance,"yeast gene YLR280C, cultured two hours with substance",0.5
same,The level of expressed mRNA in the presence of chemical substance/The level of expressed mRNA in the absence of chemical substance,"yeast gene YLR324W, cultured two hours with substance",1.4
same,The level of expressed mRNA in the presence of chemical substance/The level of expressed mRNA in the absence of chemical substance,"yeast gene YLR350W, cultured two hours with substance",2.8
same,The level of expressed mRNA in the presence of chemical substance/The level of expressed mRNA in the absence of chemical substance,"yeast gene YLR387C, cultured two hours with substance",1.7
same,The level of expressed mRNA in the presence of chemical substance/The level of expressed mRNA in the absence of chemical substance,"yeast gene YLR408C, cultured two hours with the substance",2.1
same,The level of expressed mRNA in the presence of chemical substance/The level of expressed mRNA in the absence of chemical substance,"yeast gene YLR460C, cultured two hours with substance",3.5
same,The level of expressed mRNA in the presence of chemical substance/The level of expressed mRNA in the absence of chemical substance,"yeast gene YML054C, cultured for two hours with substance",2.1
same,The level of expressed mRNA in the presence of chemical substance/The level of expressed mRNA in the absence of chemical substance,"yeast gene YML087C, cultured for two hours with substance",2.1
same,The level of expressed mRNA in the presence of chemical substance/The level of expressed mRNA in the absence of chemical substance,"yeast gene YML117W, cultured two hours with substance",0.8
same,The level of expressed mRNA in the presence of chemical substance/The level of expressed mRNA in the absence of chemical substance,"yeast gene YMR009W, cultured two hours with substance",1.9
same,The level of expressed mRNA in the presence of chemical substance/The level of expressed mRNA in the absence of chemical substance,"yeast gene YMR067C, cultured two hours with substance",1.5
same,The level of expressed mRNA in the presence of chemical substance/The level of expressed mRNA in the absence of chemical substance,"yeast gene YMR090W, cultured two hours with substance",6.5
same,The level of expressed mRNA in the presence of chemical substance/The level of expressed mRNA in the absence of chemical substance,"yeast gene YMR095C, cultured two hours with substance",2.2
same,The level of expressed mRNA in the presence of chemical substance/The level of expressed mRNA in the absence of chemical substance,"yeast gene YMR096W, DNA repair protein genes, cultured two hours with substance",4.7
same,The level of expressed mRNA in the presence of chemical substance/The level of expressed mRNA in the absence of chemical substance,"yeast gene YMR097C, cultured two hours with substance",2.1
same,The level of expressed mRNA in the presence of chemical substance/The level of expressed mRNA in the absence of chemical substance,"yeast gene YMR102C, cultured two hours with substance",0.7
same,The level of expressed mRNA in the presence of chemical substance/The level of expressed mRNA in the absence of chemical substance,"yeast gene YMR107W, cultured two hours with substance",8.1
same,The level of expressed mRNA in the presence of chemical substance/The level of expressed mRNA in the absence of chemical substance,"yeast gene YMR140W, cultured two hours with substance",1.2
same,The level of expressed mRNA in the presence of chemical substance/The level of expressed mRNA in the absence of chemical substance,"yeast gene YMR180C, cultured two hours with substance",1.7
same,The level of expressed mRNA in the presence of chemical substance/The level of expressed mRNA in the absence of chemical substance,"yeast gene YMR184W, cultured two hours with substance",1.5
same,The level of expressed mRNA in the presence of chemical substance/The level of expressed mRNA in the absence of chemical substance,"yeast gene YMR191W, cultured two hours with substance",1.5
same,The level of expressed mRNA in the presence of chemical substance/The level of expressed mRNA in the absence of chemical substance,"yeast gene YMR195W, cultured two hours with substance",1.3
same,The level of expressed mRNA in the presence of chemical substance/The level of expressed mRNA in the absence of chemical substance,"yeast gene YMR295C, cultured two hours with substance",1.3
